Measured values: the METLIN SMRT retention time set (Domingo-Almenara et al. 2019)

Test: gradient 5% acetonitrile 3 min, to 50% in 2 min, to 85% in 15 min, held 3 min, 100 µL/min
Conditions: column: Zorbax Extend-C18 2.1 x 50 mm; eluents: water / acetonitrile, 0.1% formic acid
Procedure, shortened: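 Mixtures of ~100 pure standards were chromatographed on a Zorbax Extend-C18 column (2.1 × 50 mm, 1.8 μm) at 100 μL/min using water and acetonitrile, each with 0.1% formic acid. Detection used a quadrupole time-of-flight mass spectrometer in positive and negative ionization mode, and data collection spanned 3 months. Retention time was obtained from adduct peaks picked computationally and each checked manually.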

RP-LC retention time | Compound
882 s | COc1ccc(CC2C(=O)Nc3ccc(Br)cc32)cc1 (stereo not drawn)
714 s | Cc1ccn2c(NC(=O)COc3ccc(Cl)cc3)c(-c3ccccc3)nc2c1
885 s | CCc1ccc(N(CC)C(=O)Cn2cnc3nc4c(cc3c2=O)CCCC4)cc1
759 s | COc1ccc(CNC(=O)N2CCC(n3c(-c4ccco4)nc4cccnc43)C2)cc1 (stereo not drawn)
878 s | COc1cc2c(cc1OC)C(Nc1nc(-c3ccccc3)cs1)=NC(C)(C)C2
976 s | O=C(Nc1nccs1)C1CCN(c2nc(-c3ccc(Cl)cc3)no2)CC1
975 s | CCSc1nnc(-c2nn(C)c3c2CN(S(=O)(=O)c2cc(Cl)ccc2OC)CC3)n1CC
703 s | CCN1CCCC1CNC(=O)c1nnc(-c2ccc(S(=O)(=O)N3CCC(C)CC3)cc2)o1 (stereo not drawn)
529 s | CCN1CCN(c2ncc3c(n2)CCN(Cc2cccc(C)c2)C3)CC1
953 s | CCn1c(=O)sc2cc(S(=O)(=O)N3CCC(C(=O)N(C)c4ccc(C)cc4)CC3)ccc21
983 s | COc1ccc(S(=O)(=O)N2CCc3nc(-c4ccc(F)cc4)ncc3C2)cc1OC
1170 s | CCC(C)n1c(=O)c2ccccc2n(Cc2nc(-c3ccccc3Cl)no2)c1=O (stereo not drawn)
855 s | Cc1ccc(C2=NC3(CCN(C(=O)c4ccccc4C)CC3)ON2)cc1
766 s | Cc1ccc(Nc2c(-c3ccc(C(=O)O)cc3)nc3cnccn23)cc1
720 s | Cc1ccc2c(=O)c(C(=O)N3CCCC3)cn(CC(=O)Nc3ccc(F)c(F)c3)c2n1
1280 s | O=S(=O)(c1ccc(-c2noc(-c3cccc(F)c3)n2)cc1)N1CCCCC1
1060 s | CCC(c1cccs1)N1C(=O)[C@H]2CN(S(=O)(=O)c3cccc(Cl)c3)C[C@H]2C1=O (stereo partly drawn)
704 s | COc1ccc(NC(=O)c2c(C)oc3nc(C)nc(N4CCCC4)c23)cc1
760 s | COc1ccc(OC)c2c1cc1n2CC(C)(C(=O)NC2CCCCCCC2)N(CCN(C)C)C1=O (stereo not drawn)
930 s | Cc1cnn(Cc2nc(-c3ccc(NC(=O)CC4CCCC4)cc3)oc2C)c1
624 s | CC[C@@H]1C(=O)N(C)c2cnc(Nc3ccc(C(=O)NC4CCN(C)CC4)cc3OC)nc2N1C1CCCC1

RP-LC retention time | Compound
860 s | CCCn1cc(S(=O)(=O)Nc2cc(OC)cc(OC)c2)c2cccnc21
1260 s | Clc1cccc(CSc2nnc(-c3ccc(Br)cc3)o2)c1
937 s | CCOC(=O)c1ccc(NC(=O)c2cc(C)nn2-c2ccccc2)cc1
802 s | O=C(NC1CC1)c1nc2ccccn2c1-c1ccc(Cl)cc1
835 s | CC(=O)N(Cc1nn(C)c2c1CN(S(=O)(=O)Cc1ccccc1Cl)CC2)c1ccccc1
649 s | Cc1ccc(NC(=O)CN2CCc3c(c(=O)c4cc(C)ccc4n3C)C2)cc1
733 s | O=C(Nc1c(-c2ccc(F)cc2)nc2ccccn12)c1ccc(Cl)c([N+](=O)[O-])c1
815 s | Cc1cnnn1-c1ccc(C(=O)Nc2cc(Cl)ccc2Cl)cc1
583 s | COc1ccc(C2=NC3(CCN(C)CC3)NC(c3cccc(OC)c3O)C2)cc1 (stereo not drawn)
663 s | Cc1ccn2cc(-c3ccc(NC(=O)COc4ccccc4)cc3)nc2n1
741 s | COc1cc(OC)cc(C(=O)NC2CCN(c3cc(-c4cccs4)[nH]n3)C2)c1 (stereo not drawn)
909 s | O=C(c1ccccc1)N1CCC(CCNS(=O)(=O)c2ccc(Br)cc2)CC1
799 s | O=S(=O)(c1ccc2c(c1)OCCO2)N1CCC[C@H]1c1nc(-c2ccc(F)cc2)n[nH]1
622 s | COCc1cn(C2CN(C(=O)c3ccc(OC)cc3OC)C2)nn1
784 s | Cn1c(=O)sc2cc(S(=O)(=O)N3CCC(C(=O)NCc4ccc5c(c4)OCO5)CC3)ccc21
1010 s | Cc1ccc(-c2ccc3nn(Cc4cccc(Br)c4)c(=O)n3n2)cc1C
881 s | Cc1nnc2ccc(-c3noc(-c4cccc(F)c4)n3)cn12
1080 s | CCc1nc(-c2csc(S(=O)(=O)N3CCC(C(=O)Nc4ccc(C)cc4Cl)CC3)c2)no1
1080 s | Cc1ccc(S(=O)(=O)N(C)C)cc1-c1nnc(-c2ccc(Cl)cc2)o1
1010 s | COCCn1cc(C(=O)Nc2ccc(F)cc2F)c2nn(-c3ccccc3)c(=O)c-2c1
1250 s | CC1CCCCN1S(=O)(=O)c1ccc2nc(N3CCN(c4cccc(Cl)c4)CC3)ccc2c1 (stereo not drawn)

Continued, molecule first:

Compound | RP-LC retention time
CC(NC(=O)C(=O)NCc1nc(-c2ccccc2)no1)c1ccccc1 (stereo not drawn) | 856 s
Cc1nc2scc(C)n2c(=O)c1NC(=O)CCSc1ccccc1 | 675 s
CCOC(=O)c1sc(NC(=O)Cn2nc3c(cc2=O)CCCCC3)nc1C | 853 s
CCOC(=O)c1c(C)c(C(=O)CN(CC2CCCO2)C(=O)c2cccc(F)c2)c(C)n1C (stereo not drawn) | 920 s
CCCn1cc(CCNC(=O)c2ccccc2C)c2cccnc21 | 748 s
Cn1ncc(N2CCC(C(=O)N3CCc4ccccc43)C2)cc1=O (stereo not drawn) | 714 s
COC(=O)C1=C(N)Oc2cc(C)n(CCN(C)C)c(=O)c2C1c1ccccc1Cl (stereo not drawn) | 624 s
Cc1cc(C)n2nc(SCC(=O)Nc3ccccc3C(F)(F)F)nc2n1 | 753 s
O=P(O)(O)c1cc(-c2ccccc2)oc1-c1ccccc1 | 852 s
CC1CCC(NC(=O)c2cc3sc(Cl)cc3n2C)CC1 (stereo not drawn) | 1230 s
O=C(C1CCCC1)N1CCC(c2noc(-c3ccccc3)n2)C1 (stereo not drawn) | 924 s
O=C(NCCN1CCOCC1)c1ccc2c(c1)CCCN2C(=O)c1ccccc1F | 602 s
CC(=O)c1cccc(NC(=O)c2csc3c2CCC(C)C3)c1 (stereo not drawn) | 997 s
Cc1ccc2[nH]c(=O)c(CCC(=O)NCc3ccccn3)cc2c1 | 596 s
Cc1ccccc1S(=O)(=O)N(C)CC1CCOCC1 | 837 s
NNC(=O)CSc1nc2scc(-c3ccccc3)c2c(=O)n1-c1ccccc1 | 838 s
Cc1nn(CC(=O)NCCC(C)C)c(=O)c2nc(-c3ccccc3)sc12 | 871 s
Cc1csc(C(=O)Nc2cccc3ccc(-n4ccnc4)nc23)c1 | 641 s
Cc1c(N2C(=O)C3C4C=CC(C4)C3C2=O)c(=O)n(-c2ccccc2)n1C (stereo not drawn) | 615 s
CC1Oc2ccc(-c3csc(NC(=O)CCC4CCCCC4)n3)cc2N(C)C1=O (stereo not drawn) | 1230 s
CCCOc1ccc(C(=O)N(Cc2ccc(Br)o2)C2CCS(=O)(=O)C2)cc1 (stereo not drawn) | 1010 s
Cc1cccc(-c2c3c(=O)n(C)c(=O)n(C)c3c3n2CCOC3c2c(C)n(C)c(=O)n(C)c2=O)c1 (stereo not drawn) | 746 s
Cn1nc(CNC(=O)c2ccccc2Br)c2ccccc21 | 757 s

Compound | RP-LC retention time
Cc1ccc(C)c(NS(=O)(=O)c2cc(-c3[nH]ncc3C(=O)N(C)C)oc2C)c1 | 700 s
Cc1ccc(CN2C[C@@H]3C(=O)N(CCCN4CCCC4=O)C(=O)[C@@H]3C2)cc1 | 589 s
Nc1cc(=O)nc(SCC(=O)Nc2nc(-c3ccccc3)cs2)n1-c1ccccc1 | 727 s
C[C@H]1CN(C(=O)Nc2cccc(Cl)c2)C[C@@H]1c1nc(-c2cccnc2)no1 | 849 s
CC1(C)CC(=O)C2=C(C1)N(Cc1ccco1)C(=O)C2(NC(=O)CCc1ccccc1)C(F)(F)F (stereo not drawn) | 996 s
CCN(CC)C(=O)c1cc2c(s1)CCC(C(=O)NCc1ccncc1)C2 (stereo not drawn) | 557 s
Cc1ccccc1-c1noc(-c2nn(-c3ccc(Cl)cc3)ccc2=O)n1 | 1010 s
c1cc(-c2noc(C3CCOCC3)n2)ccc1OC1CNC1 | 640 s
CN(C)c1ccc(NC(=O)c2ccco2)cc1 | 532 s
CC1=C(C(=O)Nc2ccccc2C)C(c2ccc(Cl)cc2Cl)NC(=O)N1 (stereo not drawn) | 704 s
Cc1cc(C(=O)N2CC(F)(F)C[C@H]2c2nc(C3CC3)no2)on1 | 809 s
Cc1ccc(Cl)cc1N1CCN(C(=O)CN2C(=O)C3C4C=CC(C4)C3C2=O)CC1 (stereo not drawn) | 977 s
CCOCCCNC(=O)C1CCN(c2cc(Oc3ccc(CC)cc3)ncn2)CC1 | 646 s
O=C(NCc1cccs1)c1c(O)c2cccnc2n(Cc2ccccc2)c1=O | 1310 s
O=C(Nc1c(F)cccc1F)N1CC(c2nc(C3CC3)no2)C1 | 670 s
Cc1nc(CNC(=O)[C@H]2CCCN2S(=O)(=O)c2cccc(C(F)(F)F)c2)cs1 | 787 s
CC(C)NC(=O)CN1C(=O)CSc2ccc(C(=O)N3CCCCC3)cc21 | 673 s
CCOc1ccc2nc(Nc3nc(C)cc(C(F)(F)F)n3)nc(C)c2c1 | 753 s
O=C(Nc1cc(C(F)(F)F)cc(C(F)(F)F)c1)Nc1c(Br)cc(Br)cc1-c1nn[nH]n1 | 1130 s
O=C(c1ccoc1)N1CCC(N2CC(F)(F)C[C@H]2CO)CC1 | 539 s
O=C1NC2(CCN(C(=O)Nc3ccccc3)CC2)Oc2ccccc21 | 721 s
Cc1noc(/C=C\c2ccc(S(=O)(=O)N3CCOCC3)cc2)c1NC(=O)C1CC1 | 777 s
O=C1c2cccc([N+](=O)[O-])c2C(=O)N1c1nc(-c2ccccc2)cs1 | 958 s
